For assay [1], the target named is T1, rat A1 cortical receptors (Rattus norvegicus, UniProt P25099).
T1 construct: Rat cerebral cortical membranes and striatal membranes were prepared; from tissue; host or cells: rat cerebral cortex membranes
T1 sequence (P25099 1-326): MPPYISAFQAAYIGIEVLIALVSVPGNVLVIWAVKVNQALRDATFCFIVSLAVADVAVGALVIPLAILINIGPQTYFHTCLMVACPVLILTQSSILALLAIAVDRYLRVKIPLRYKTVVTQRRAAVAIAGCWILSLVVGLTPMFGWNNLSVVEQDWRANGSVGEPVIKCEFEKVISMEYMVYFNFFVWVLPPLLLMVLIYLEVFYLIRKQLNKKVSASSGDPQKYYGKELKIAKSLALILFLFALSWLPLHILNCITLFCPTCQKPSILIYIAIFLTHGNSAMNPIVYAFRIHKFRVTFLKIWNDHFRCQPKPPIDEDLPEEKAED
Put plainly: Radioligand binding, [3H]N6-phenylisopropyladenosine ([3H]PIA), rat cortical A1 receptors. The settings on record: for Ki: vs [3H]PIA (1 nM), read-out: Ki (A1); for inhibition at 10 µM: at 10^-5.
Description: (§1) The 1,3,7-trialkyl-8-substituted xanthine compounds of the present invention were tested in a radioligand binding assay for affinity at adenosine receptors in rat brain membranes.
The final concentration of DMSO in the assay medium was generally 2%.
Membranes (~100 μg protein per tube) were incubated for 1.5 h at 37° C. in a total volume of 0.5 ml of 50 mM Tris hydrochloride, at pH 7.4. Test drugs were dissolved in DMSO and added in 10 μl aliquots, resulting in a final DMSO concentration of 2%. Bound and free radioligand were separated by addition of 3 ml of a buffer containing 50 mM Tris hydrochloride, pH 7.4, at 5° C., followed by vacuum filtration using a Brandel Cell Harvester (Brandel, Gaithersburg, Md.) and a Whatman GF/B glass fiber filter with additional washes totaling 9 ml of buffer. Non-specific binding was determined with 10 μM 2-chloroadenosine.
(§2) At least six different concentrations spanning three orders of magnitude, adjusted appropriately for the IC50 of each compound, were used.

The target in assay [2] is rat striatal A2a receptors (Rattus norvegicus, UniProt P30543). Nature of the assay: Radioligand binding, [3H]CGS 21680, rat striatal A2a receptors. More on the design: Rat cerebral cortical membranes and striatal membranes were prepared; from tissue; host or cells: rat striatal membranes. The settings on record: for potency or selectivity in binding, in words: rat A1 and A2 binding; for A2-selectivity: rat brain binding, this study.
Description: as §1
The stock solutions were diluted with DMSO to a concentration of ≥0.1 mM prior to adding to the aqueous medium. The final concentration of DMSO in the assay medium was generally 2%.
Test drugs were dissolved in DMSO and added in 10 μl aliquots, resulting in a final DMSO concentration of 2%. Non-specific binding was defined using 20 μM 2-chloroadenosine. Filtration was carried out using a Brandel Cell Harvester, as above, using Tris HCl/MgCl2 as the washing buffer.
as §2

Where [3] appears, read: Table I, vs [3H]CGS21680 (5 nM), rat striatal A2 receptors, read-out: Ki (A2a).
Setting [4] is: Table III, vs [3H]CGS21680 (5 nM), read-out: Ki (A2).
The mark [5] stands for this setting: vs [3H]CGS 21680, read-out: Ki value / affinity at A2 receptors.
Where [6] appears, read: 1.5 h, vs [3H]PIA, read-out: Percent displacement of specific binding (A1).

Structures are written as SMILES. Read-outs that look alike come from different tables or passages of the source. Bounds are passed on as bounds.

rat striatal A2a receptors, sequence (P30543 whole entry): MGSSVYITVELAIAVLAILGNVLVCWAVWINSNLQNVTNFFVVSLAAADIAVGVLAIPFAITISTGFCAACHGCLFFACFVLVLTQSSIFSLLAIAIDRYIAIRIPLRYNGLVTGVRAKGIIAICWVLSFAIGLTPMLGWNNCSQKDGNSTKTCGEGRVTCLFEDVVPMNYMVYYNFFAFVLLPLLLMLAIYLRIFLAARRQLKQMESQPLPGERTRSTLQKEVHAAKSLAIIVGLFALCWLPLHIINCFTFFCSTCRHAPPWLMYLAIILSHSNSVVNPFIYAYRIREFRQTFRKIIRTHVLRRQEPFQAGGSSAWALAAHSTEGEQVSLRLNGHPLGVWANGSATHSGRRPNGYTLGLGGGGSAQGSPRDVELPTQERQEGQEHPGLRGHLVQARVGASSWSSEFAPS

For `CN(C)c1ccc(/C=C/c2nc3c(c(=O)n(C)c(=O)n3C)n2C)cc1` [Compound 30b], the inhibition at 30 µM in assay [1] (1.5 h, at 3 × 10^-5, vs [3H]PIA, read-out: Percent displacement of specific binding (A1)) came out at 5.6%. The A1/A2a ratio in assay [2] (Table I, ratio of Ki values) is listed as > 1. Moreover, the Ki in assay [2] (setting [3]) was 9270 nM. Also, in assay [2], the “potency or selectivity in binding, in words” value (shortened to “potency or selectivity”) is listed as “displayed A2 -selectivity”.

Turning to `Cn1c(=O)c2c(nc(/C=C/c3cccc(F)c3)n2C)n(C)c1=O` [Compound 27b], the Ki in assay [1] (Table I, rat A1 receptors) worked out at 15800 nM; in assay [2] (setting [3]) it was 83 ± 18 nM. In assay [2] (Table I, ratio of Ki values), the A1/A2a ratio was found to be 190. In assay [2], the A2-selectivity is ≥ 200 fold.

As for `Cn1c(=O)c2c(nc(/C=C/C(=O)Nc3ccccc3)n2C)n(C)c1=O` [C(O)NH-phenyl(Rβ = H)], the Ki in assay [1] (Table III) came out at 50000 nM; in assay [2] (setting [4]) it was 2530 nM. The A1/A2 ratio in assay [2] (Table III) worked out at 19.8.

For the molecule `Cn1c(=O)c2c(nc(/C=C/c3cccc(Br)c3)n2C)n(C)c1=O` [Compound 28b], the Ki in assay [1] (Table I, rat A1 receptors) was 3520 nM; in assay [2] (setting [3]), 29.2 ± 3.1 nM. Moreover, the A1/A2a ratio in assay [2] (Table I, ratio of Ki values) is 120.

As for `CCn1c(/C=C/c2cc(OC)c(OC)c(OC)c2)nc2c1c(=O)n(C)c(=O)n2C` [Compound 44c, 7-Ethyl-1,3-trimethyl-8-[3,4,5-trimethoxystyryl]xanthine], the Ki amounted to 6290 nM in assay [1] (Table I, rat A1 receptors) and 882 ± 239 nM in assay [2] (setting [3]). Further, the A1/A2a ratio in assay [2] (Table I, ratio of Ki values) was found to be 7.1.

Turning to `COc1ccc(/C=C/c2nc3c(c(=O)n(C)c(=O)n3C)n2C)cc1` [Compound 29b, 1,3,7-Trimethyl-8-(4-methoxystyryl)xanthine], the Ki was found to be 14200 nM in assay [1] (Table I, rat A1 receptors) and 327 ± 75 nM in assay [2] (setting [3]). For the same molecule, the A1/A2a ratio in assay [2] (Table I, ratio of Ki values) worked out at 44.

As for `Cn1c(=O)c2[nH]c(/C(F)=C/c3ccccc3)nc2n(C)c1=O` [Compound 16], the Ki worked out at 2190 nM in assay [1] (Table I, rat A1 receptors) and 2110 nM in assay [2] (setting [3]). For the same molecule, the A1/A2a ratio in assay [2] (Table I, ratio of Ki values) amounted to 1.4.

Take `CCCn1c(=O)c2c(nc(/C=C/c3cc(F)cc(F)c3)n2C)n(CCC)c1=O` [Compound 54b]: the Ki is 382 ± 40 nM in assay [1] (Table I, rat A1 receptors); 53 ± 15 nM in assay [2] (setting [3]); ≤ 50 nM in assay [2] (setting [5]). In assay [2] (Table I, ratio of Ki values), the A1/A2a ratio is reported as 7.2.

In the case of `Cn1c(=O)c2c(nc(/C=C/c3cccc(N)c3)n2C)n(C)c1=O` [Compound 22b, 1,3,7-Trimethyl-8-(3-aminostyryl)xanthine], the Ki came to 1690 nM in assay [1] (Table I, rat A1 receptors) and 57 ± 3 nM in assay [2] (setting [3]). Also, the A1/A2a ratio in assay [2] (Table I, ratio of Ki values) is reported as 30. Also, the A2-selectivity in assay [2] amounted to 30 fold.

As to `COc1cc(/C=C/c2nc3c(c(=O)n(C)c(=O)n3C)n2C)cc(OC)c1O` [Compound 35], the Ki in assay [1] (Table I, rat A1 receptors) worked out at 8700 nM; in assay [2] (setting [3]), 450 ± 66 nM. For the same molecule, in assay [2] (Table I, ratio of Ki values), the A1/A2a ratio was 19. The “potency or selectivity” value in assay [2] is listed as “moderately selective”.

On to `Cn1c(=O)c2c(nc(/C=C/c3cccc(C(F)(F)F)c3)n2C)n(C)c1=O` [Compound 20b, 1,3,7-Trimethyl-8-(3-trifluoromethylstyryl)xanthine], for which the Ki is 3330 nM in assay [1] (Table I, rat A1 receptors) and 134 ± 44 nM in assay [2] (setting [3]). For the same molecule, in assay [2] (Table I, ratio of Ki values), the A1/A2a ratio was 25.

On to `CCCn1c(=O)c2[nH]c(/C=C/c3ccc(OC)c(OC)c3OC)nc2n(CCC)c1=O` [Compound 55a], for which the Ki came to 97 ± 19 nM in assay [1] (Table I, rat A1 receptors) and 64 ± 15.6 nM in assay [2] (setting [3]). Besides, in assay [2] (Table I, ratio of Ki values), the A1/A2a ratio is 1.5.

With `CCCn1c(=O)c2[nH]c(/C=C/c3cccc(F)c3)nc2n(CCC)c1=O` [Compound 50a], the Ki in assay [1] (Table I, rat A1 receptors) came out at 78 ± 17 nM; in assay [2] (setting [3]), 153 ± 31 nM. The A1/A2a ratio in assay [2] (Table I, ratio of Ki values) is recorded as 0.51.

Regarding `COc1cc(/C=C/c2nc3c(c(=O)n(C)c(=O)n3C)n2C)cc(OC)c1OCc1ccccc1` [Compound 37, 1,3,7-Trimethyl-8-(3,5-dimethoxy-4-benzyloxystyryl) xanthine], the Ki in assay [1] (Table I, rat A1 receptors) turned out to be 4120 nM; in assay [2] (setting [3]), 139 ± 7 nM. Besides, the A1/A2a ratio in assay [2] (Table I, ratio of Ki values) is reported as 30.

For `CCCn1c(=O)c2[nH]c(/C=C/c3cccc(Cl)c3)nc2n(CCC)c1=O` [Compound 51a], the Ki is 167 ± 39 nM in assay [1] (Table I, rat A1 receptors) and 216 ± 66 nM in assay [2] (setting [3]). The A1/A2a ratio in assay [2] (Table I, ratio of Ki values) came out at 0.77.

Consider `COc1cc(/C=C/c2nc3c(c(=O)n(C)c(=O)n3C)n2C)cc(OC)c1OC(C)=O` [Compound 36], for which the Ki was 6330 nM in assay [1] (Table I, rat A1 receptors) and 68 ± 22 nM in assay [2] (setting [3]). In assay [2] (Table I, ratio of Ki values), the A1/A2a ratio is listed as 93. This molecule yielded an A2-selectivity in assay [2] of 93 fold.

On to `COc1ccc(/C=C/c2nc3c(c(=O)n(C)c(=O)n3C)n2C)c(OC)c1OC` [Compound 43b], for which the Ki stood at 6920 nM in assay [1] (Table I, rat A1 receptors) and 206 ± 81 nM in assay [2] (setting [3]). The A1/A2a ratio in assay [2] (Table I, ratio of Ki values) is 34.

As to `CCCn1c(=O)c2c(nc(/C=C/c3cccc(F)c3)n2C)n(CCC)c1=O` [Compound 50b], the Ki is 301 ± 64 nM in assay [1] (Table I, rat A1 receptors); 33 ± 15 nM in assay [2] (setting [3]); ≤ 50 nM in assay [2] (setting [5]). Further, in assay [2] (Table I, ratio of Ki values), the A1/A2a ratio came to 9.1.

Turning to `COc1cc(/C=C/c2nc3c(c(=O)n(C)c(=O)n3C)n2C)cc(OC)c1OC/C=C/CNC(=O)OC(C)(C)C` [Compound 42], the inhibition at 10 µM in assay [1] (setting [6]) stood at 11 ± 5%. In assay [2] (Table I, ratio of Ki values), the A1/A2a ratio is recorded as > 40. In addition, the Ki in assay [2] (setting [3]) amounted to 353 ± 62 nM.

Take `Cn1c(=O)c2c(nc(/C=C/C(=O)O)n2C)n(C)c1=O` [C(O)OH(Rβ = H), 8-(trans-2-Carboxyvinyl)-1,3,7-trimethylxanthine]: the Ki in assay [1] (Table III) is > 100000 nM; in assay [2] (setting [4]) it was 30000 nM. The A1/A2 ratio in assay [2] (Table III) is listed as > 3.

For `Cn1c(=O)c2c(nc(/C=C/c3cccc([N+]#N)c3)n2C)n(C)c1=O` [Compound 28d], the Ki in assay [1] (Table I, rat A1 receptors) came to 2990 nM; in assay [2] (setting [3]) it was 64.8 ± 19.6 nM. Further, the A1/A2a ratio in assay [2] (Table I, ratio of Ki values) is reported as 46.

For the molecule `COc1ccccc1/C=C/c1nc2c([nH]1)c(=O)n(C)c(=O)n2C` [Compound 17a, 1,3-Dimethyl-8-(2-methoxystyryl)xanthine], the Ki was 1730 nM in assay [1] (Table I, rat A1 receptors) and 645 ± 144 nM in assay [2] (setting [3]). In assay [2] (Table I, ratio of Ki values), the A1/A2a ratio worked out at 2.7.

Consider `COc1cc(/C=C/c2nc3c(c(=O)n(C)c(=O)n3C)n2C)cc(OC)c1OC/C=C/CN` [Compound 40], for which the Ki in assay [1] (Table I, rat A1 receptors) was 6280 nM; in assay [2] (setting [3]) it was 228 ± 20 nM. The A1/A2a ratio in assay [2] (Table I, ratio of Ki values) worked out at 28.

As for `COc1ccc(/C=C/c2nc3c(c(=O)n(C)c(=O)n3C)n2C)cc1OC` [Compound 32b, 1,3,7-Trimethyl-8-(3,4-dimethoxystyryl)xanthine], the Ki turned out to be 13800 nM in assay [1] (Table I, rat A1 receptors) and 197 ± 33 nM in assay [2] (setting [3]). Also, the A1/A2a ratio in assay [2] (rat, brain membranes) was found to be 70.

`Cn1c(=O)c2[nH]c(/C=C/c3ccccc3)nc2n(C)c1=O` [Compound 15a]: the Ki in assay [1] (Table I, rat A1 receptors) is 654 ± 170 nM; in assay [2] (setting [3]), 291 ± 40 nM. Also, the A1/A2a ratio in assay [2] (Table I, ratio of Ki values) amounted to 2.3. Moreover, in assay [2], the “potency or selectivity” value was “non-selective”.

On to `Cn1c(=O)c2c(nc(/C=C/c3cccc([N+](=O)[O-])c3)n2C)n(C)c1=O` [Compound 21b, 1,3,7-Trimethyl-8-(3-nitrostyryl)xanthine], for which the Ki in assay [1] (Table I, rat A1 receptors) was determined as 2140 nM; in assay [2] (setting [3]), 195 ± 44 nM. Further, the A1/A2a ratio in assay [2] (Table I, ratio of Ki values) is recorded as 11.

Consider `COc1cc(/C=C/c2nc3c(c(=O)n(C)c(=O)n3C)n2C)cc(OC)c1OC/C=C/CNC(C)=O` [Compound 41], for which the inhibition at 10 µM in assay [1] (setting [6]) was determined as 17 ± 7%. For the same molecule, the A1/A2a ratio in assay [2] (Table I, ratio of Ki values) was > 50. For the same molecule, the Ki in assay [2] (setting [3]) was found to be 216 ± 40 nM.

Regarding `Cn1c(=O)c2[nH]c(/C=C/c3cccc(N)c3)nc2n(C)c1=O` [Compound 22a, 1,3-Dimethyl-8-(3-aminostyryl)xanthine], the Ki in assay [1] (Table I, rat A1 receptors) amounted to 288 ± 60 nM; in assay [2] (setting [3]) it was 202 ± 79 nM. For the same molecule, the A1/A2a ratio in assay [2] (Table I, ratio of Ki values) is recorded as 1.4.

Source of the values: US5861405A, “S-substituted 1,3,7-trialkyl-xanthine derivatives” (priority 1994, dated 1999).
